In patent US11571397B2, “Compositions and methods for treating seizure-induced sudden death” (ZOGENIX INTERNATIONAL LIMITED, priority 2018, dated 2023):

Key:
DBA/1 mice = experiment: Reversal of FFA's anticonvulsant and S-IRA blocking effects by selective 5-HT receptor antagonists in DBA/1 mice; format: in vivo, mouse
Experimental: (§1) For these experiments, DBA/1 mice (N=287) were used (after subjecting to the established priming procedure to assure consistent susceptibility to S-IRA following AGSz) to assess the effects of fenfluramine on various 5-HT receptors. Seizures were induced using an electrical bell, and resuscitation was accomplished using a rodent respirator (Faingold et al., 2010). At least 24 hours after priming, the mice received FFA (15 mg/kg, i.p.) and were tested for AGSz and S-IRA susceptibility 16 hours later. Thirty minutes prior to AGSz induction, a selective 5-HT receptor antagonist or vehicle was administered to evaluate if a specific receptor contributes to the ability of FFA to block S-IRA. Seizure behaviors were recorded on videotape, quantified, and compared statistically with vehicle-treated negative and FFA-treated positive controls (Chi-Square Test; significance set at p<0.05).
Specifically, the antagonists tested were: the 5-HT1A antagonist WAY100635 (0.1-15 mg/kg); the 5-HT2 antagonist Ritanserin (10-20 mg/kg); the 5-HT3 antagonist Ondansetron (1-3 mg/kg); the 5-HT4 antagonist GR125487 (20-60 mg/kg); the 5-HT5A antagonist SB669551 (10-20 mg/kg); and the 5-HT7 antagonist SB269970 (30-40 mg/kg). Studies investigating the effect of 5-HT6 and 5-HT1a/1b antagonists are also underway.
as §1, with “mice” for “mice (N=287)”

DBA mice = settings: cited from earlier work; for seizure-induced respiratory failure and death: DBA mice, dose-dependent
[1] = dietary supplementation, DBA/1 mice

## Cc1nc2sccn2c(=O)c1CCN1CCC(=C(c2ccc(F)cc2)c2ccc(F)cc2)CC1 [Ritanserin]
DBA/1 mice; antagonist 20 mg/kg, FFA 15 mg/kg
  reversal of FFA's anticonvulsant effect against the severity of AGSz: able to reverse

## COCCCC/C(=N\OCCN)c1ccc(C(F)(F)F)cc1 [fluvoxamine]
DBA mice
  seizure-induced respiratory failure and death: prevent

## CNCCC(Oc1ccc(C(F)(F)F)cc1)c1ccccc1 (centres unmarked) [fluoxetine]
DBA mice
  seizure-induced respiratory failure and death: prevent

## CN(C)CCN(Cc1ccc(-c2ccc(CNCCc3ccccc3)cc2)cc1)C(=O)CCC1CCCC1 [SB669551]
DBA/1 mice; antagonist at 20 mg/kg, FFA 15 mg/kg
  effect on FFA's anticonvulsant effect: blocked

## N[C@@H](Cc1c[nH]c2ccc(O)cc12)C(=O)O [5-hydroxytryptophan]
DBA mice; [1]
  S-IRA: blocked
  incidence of AGSz behaviors: significantly reduced

## Cc1nccn1CC1CCc2c(c3ccccc3n2C)C1=O (centres unmarked) [Ondansetron]
DBA/1 mice; antagonist 1-3 mg/kg, FFA 15 mg/kg
  reversal of FFA's effect: not effective at any dose tested

## COc1ccc(C(CN(C)C)C2(O)CCCCC2)cc1 (centres unmarked) [venlafaxine]
DBA mice
  seizure-induced respiratory failure and death: prevent

## CN[C@H]1CC[C@@H](c2ccc(Cl)c(Cl)c2)c2ccccc21 [sertraline]
DBA mice
  seizure-induced respiratory failure and death: prevent

## CNCC[C@@H](Oc1ccccc1C)c1ccccc1 [atomoxetine]
DBA mice
  seizure-induced respiratory failure and death: prevent

## COc1[nH]c2ccc(F)cc2c1C(=O)OCC1CCN(CCNS(C)(=O)=O)CC1 [GR125487]
DBA/1 mice; antagonist 30 mg/kg, 30 min before AGSz, FFA 15 mg/kg i.p. 16 h before, p<0.05
  reversal of the FFA-induced S-IRA blockade: partial reversal
DBA/1 mice; antagonist 30 and 60 mg/kg, FFA 15 mg/kg
  reversal of FFA's anticonvulsant effect against the severity of AGSz: able to reverse

## CC1CCN(CC[C@H]2CCCN2S(=O)(=O)c2cccc(O)c2)CC1 [SB269970]
DBA/1 mice; antagonist 30 mg/kg and 40 mg/kg, FFA 15 mg/kg
  reversal of FFA's anticonvulsant effect against the severity of AGSz: able to reverse

## COc1ccccc1N1CCN(CCN(C(=O)C2CCCCC2)c2ccccn2)CC1 [WAY100635]
DBA/1 mice; antagonist 0.1-15 mg/kg, FFA 15 mg/kg
  reversal of FFA's effect: not effective at any dose tested
